How the values were obtained:
p21, BAX and FAS = experiment: p53 target gene expression (p21, BAX, FAS) by qRT-PCR; assay type: cell-based; conditions: HeLa cells, 8h
Excerpt: RNA from C33a and HeLa was isolated by Trizol and reverse transcribed using the first strand synthesis kit from NEB. Primers for p53, GAPDH and PUMA were used for quantitative real-time PCR (qRT-PCR). Primer sequences include: PUMA (forward primer: CTCAACGCACAGTACGAG and reverse primer: […]), FAS (forward primer: TCTGCCATAAGCCCTGT and reverse primer: GTCTGTGTACTCCTTCCCT), p21 (forward primer: […] and reverse primer: […]), and BAX (forward primer: […] and reverse primer: […]). ΔΔCt values were determined for PUMA using GAPDH to normalize data. Bio-rad SYBR green was used for the amplification and detection of the PCR products on an iCycler (Bio-rad).

MCF7 cells = experiment: Cell viability, MCF7; assay type: cell-based; conditions: MCF7, wild type p53
[1] = tested on: proteasome trypsin-like activity; experiment: Proteasome-Glo trypsin-like activity; assay type: cell-based; conditions: C33a cells, 2 hrs, 10 μM or 30 μM
p53 [2] = target: T1, p53 (Homo sapiens, UniProt P04637, R273C); experiment: p53 nuclear localization by immunofluorescence; assay type: cell-based; conditions: C33a cells, 30 μM, 8 hrs
T1 construct: endogenous in cells; host or cells: C33a
Method: C33a cells were plated into chamber slides and treated with 30 μM of compounds 3 or, 4 for 4, or 8 hours. As a control, 30 μM cisplatin was used. The cells were fixed with 2.5% formaldehyde for 30 minutes, followed by permeabilization with 0.01% Triton X100 for 30 minutes. Cells were blocked with 5% goat serum for 30 minutes and stained overnight with anti-p53 (Santa Cruz, antibody FL-303) or anti-phospho-H2A.X (cell signaling) in 1% FCS in PBS at 4°. The following day, the cells were washed with PBS and incubated for 45 minutes with anti-rabbit-FITC and DAPI in 1% FCS in PBS. The cells were washed and mounted with ProLong Gold.

C33a cells [3] = experiment: Cell viability (Cell Titer Glo), C33a; assay type: cell-based
Method: (§1) For the viability assays, 20,000 C33a, HeLa, or siHA cells were plated in white 96 well flat bottom plates. The cells were treated with compounds at concentrations from 0.5 to 30 μM for 48 hrs. After incubation, Cell Titer Glo (Promega) was added to the cells and luminescence read in a Tecan II plate reader. For annexin V and PI staining, 500,000 C33a cells were treated with inhibitor for 24 hrs. The cells were stained with Annexin V-FITC and PI according to eBioscience manufacturer’s instructions and analyzed by flow cytometry.

PUMA promoter = experiment: ChIP-qPCR of p53 binding to the PUMA promoter; assay type: cell-based; conditions: 8 hrs
Method: Cells treated with the indicated compounds for 8 hrs, harvested and ChIP was carried using a Chromatin Immunoprecipitation Assay Kit (EMD Millipore). p53-DNA complexes were immunoprecipitated using a mouse monoclonal DO-1 antibody (Santa Cruz) and incubated overnight at 4°C. qPCR amplifications was performed using the primer sequences Puma forward 5’- […], reverse 5’- […].

p53 [4] = target: T2, p53 (Homo sapiens, UniProt P04637); experiment: Surface plasmon resonance (Biacore) binding to p53; conditions: SPR, recombinant p53 amine linked to Biacore chip, compound 1 to 25 μM
T2 construct: purchased R&D systems
Excerpt: (§2) Free reactive amines were then blocked with ethanolamine.

E6AP = target: T3, E6AP (Homo sapiens, UniProt Q05086); experiment: Surface plasmon resonance binding to E6AP; conditions: SPR, data not shown
T3 sequence (Q05086 1-875): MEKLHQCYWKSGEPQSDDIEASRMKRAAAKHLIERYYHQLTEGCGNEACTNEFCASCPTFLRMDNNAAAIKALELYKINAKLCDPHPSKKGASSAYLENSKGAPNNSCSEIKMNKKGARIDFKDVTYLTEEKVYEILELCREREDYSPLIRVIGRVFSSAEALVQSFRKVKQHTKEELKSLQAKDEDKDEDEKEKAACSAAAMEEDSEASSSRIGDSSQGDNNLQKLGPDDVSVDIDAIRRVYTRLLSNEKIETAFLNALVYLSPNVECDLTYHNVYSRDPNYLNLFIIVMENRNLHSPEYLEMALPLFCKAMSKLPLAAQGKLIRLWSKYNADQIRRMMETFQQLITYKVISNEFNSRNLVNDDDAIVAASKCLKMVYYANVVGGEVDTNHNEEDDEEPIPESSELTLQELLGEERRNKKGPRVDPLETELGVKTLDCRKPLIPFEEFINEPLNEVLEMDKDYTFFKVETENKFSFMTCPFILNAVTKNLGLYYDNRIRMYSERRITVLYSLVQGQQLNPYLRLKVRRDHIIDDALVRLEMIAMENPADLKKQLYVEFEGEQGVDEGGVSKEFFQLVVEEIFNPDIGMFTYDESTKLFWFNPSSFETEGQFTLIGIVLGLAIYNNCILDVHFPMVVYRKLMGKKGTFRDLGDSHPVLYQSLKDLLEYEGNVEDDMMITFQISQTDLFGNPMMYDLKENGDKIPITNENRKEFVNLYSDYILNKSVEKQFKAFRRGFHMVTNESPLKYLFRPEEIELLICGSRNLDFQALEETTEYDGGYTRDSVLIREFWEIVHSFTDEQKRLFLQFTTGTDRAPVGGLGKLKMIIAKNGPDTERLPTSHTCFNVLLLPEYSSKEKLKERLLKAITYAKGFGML
Excerpt: as §2

SQ20B cells = experiment: Cell viability, SQ20B; assay type: cell-based; conditions: mutant p53
C33a cells [5] = experiment: Cell viability after p53 siRNA knockdown; assay type: cell-based; conditions: p53 siRNA vs scrambled, 10 μM, 48 hrs
Method: C33a cells were transfected with 100 pmol siRNA for p53 (Dharmacon, L-003329-00-0005) or AllStar control (Qiagen) using lipofectamine2000 according to manufacturer’s instructions. The cells were incubated for 24 hrs and then split and incubated with 10 μM compounds. Cell viability was measured after 48 hours by Cell Titer Glo. Efficiency of knockdown was determined by quantitative RT-PCR using SYBR green.

siHA cells = experiment: Cell viability (Cell Titer Glo), siHA; assay type: cell-based; conditions: 48h
Method: as §1

C33a cells [6] = experiment: Cell cycle distribution by PI staining; assay type: cell-based

## COc1ccc(/C=C/c2ccc3cccc(O)c3n2)cc1OC [compound 4]
p21, BAX and FAS
  expression of p21, BAX and FAS: induced expression
MCF7 cells
  cell viability (Fig 5D): decreased viability
[1]
  trypsin-like proteasome activity: did not significantly reduce
p53 [2]
  p53 nuclear accumulation, % of cell nuclei: 79.5±12.7 % of cell nuclei
C33a cells [3]; C33a cells, 48 hrs, Cell Titer Glo
  IC50: 2300 nM
C33a cells [3]; C33a, 30 μM, 48h
  cell viability at 30 μM: decreased viability
C33a cells [3]; C33a, mutant p53
  cell viability (Fig 5D): decreased viability
PUMA promoter; C33a cells
  p53 binding to the PUMA promoter compared to controls: 38.9±2.4 fold
PUMA promoter; HeLa cells
  p53 binding to the PUMA promoter compared to controls: 31.3±8.7 fold
p53 [4]
  Kd: 200 ± 52 nM
E6AP
  affinity for E6AP: did not have detectable affinity
SQ20B cells
  cell viability (Fig 5D): decreased viability
C33a cells [5]
  effect of p53 gene knockdown on C33a sensitivity to compound: significantly reversed
siHA cells
  cell viability at 30 μM: decreased viability
C33a cells [6]
  cell cycle distribution: normal cell cycle distribution

Reference: publication PMC4849654, “A High-Throughput Cell-Based Screen Identified a 2-[(E)-2-Phenylvinyl]-8-Quinolinol Core Structure That Activates p53” (PLoS ONE, 2016)
